Data published in ChEMBL document CHEMBL3621135 (ACS Med Chem Lett, 2015).
Calls of active or inactive are those of the source. The rule behind the calls is not given here.

Legend:
[1] = target: T1, Tyrosine-protein kinase JAK2 (Homo sapiens, UniProt O60674); experiment: Inhibition of JAK2 in human SET2 cells assessed as reduction in STAT5 phosphorylation incubated for 2 hrs by Western blot method; format: cell-based
[2] = target: Tyrosine-protein kinase JAK2 (Mus musculus, UniProt Q62120); experiment: Inhibition of JAK2 in mouse BAF3 cells assessed as reduction in STAT5 phosphorylation incubated for 2 hrs by Western blot method; format: cell-based
Tyrosine-protein kinase JAK2 (Mus musculus, UniProt Q62120), sequence (Q62120 whole entry): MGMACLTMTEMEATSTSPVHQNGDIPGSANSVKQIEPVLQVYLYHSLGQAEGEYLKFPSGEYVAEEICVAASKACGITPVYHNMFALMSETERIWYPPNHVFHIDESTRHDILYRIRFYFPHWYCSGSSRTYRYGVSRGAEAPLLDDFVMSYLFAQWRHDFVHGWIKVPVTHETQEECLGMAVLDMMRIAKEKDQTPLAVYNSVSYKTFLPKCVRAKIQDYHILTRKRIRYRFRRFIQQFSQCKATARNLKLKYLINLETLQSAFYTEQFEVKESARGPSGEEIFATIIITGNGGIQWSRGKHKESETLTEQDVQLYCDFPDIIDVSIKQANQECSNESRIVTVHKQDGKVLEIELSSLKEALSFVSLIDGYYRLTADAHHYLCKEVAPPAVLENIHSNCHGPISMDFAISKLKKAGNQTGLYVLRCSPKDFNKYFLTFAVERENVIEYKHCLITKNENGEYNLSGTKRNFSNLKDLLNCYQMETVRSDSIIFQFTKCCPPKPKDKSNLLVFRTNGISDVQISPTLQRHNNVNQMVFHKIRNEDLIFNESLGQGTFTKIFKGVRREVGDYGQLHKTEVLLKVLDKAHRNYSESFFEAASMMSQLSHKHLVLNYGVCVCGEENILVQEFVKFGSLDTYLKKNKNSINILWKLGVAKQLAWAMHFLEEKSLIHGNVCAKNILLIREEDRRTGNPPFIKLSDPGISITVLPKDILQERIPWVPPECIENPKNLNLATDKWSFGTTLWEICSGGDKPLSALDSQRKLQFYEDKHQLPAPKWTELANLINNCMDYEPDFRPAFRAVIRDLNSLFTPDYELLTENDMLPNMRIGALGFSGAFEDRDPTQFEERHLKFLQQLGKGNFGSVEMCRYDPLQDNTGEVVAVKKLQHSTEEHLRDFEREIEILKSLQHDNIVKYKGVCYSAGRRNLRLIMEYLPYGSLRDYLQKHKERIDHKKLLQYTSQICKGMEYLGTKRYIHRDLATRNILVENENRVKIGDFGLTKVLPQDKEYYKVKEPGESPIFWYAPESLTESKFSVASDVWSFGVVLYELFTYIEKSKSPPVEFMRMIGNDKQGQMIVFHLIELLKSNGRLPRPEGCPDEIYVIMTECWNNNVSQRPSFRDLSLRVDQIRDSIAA

A549 = experiment: Antiproliferative activity against human A549 cells incubated for 72 hrs by [3H] thymidine incorporation assay; format: functional, cell-based
MDA-MB-231 = experiment: Antiproliferative activity against human MDA-MB-231 cells incubated for 72 hrs by [3H] thymidine incorporation assay; format: functional, cell-based
MIA PaCa-2 = experiment: Antiproliferative activity against human MIAPaCa2 cells incubated for 72 hrs by [3H] thymidine incorporation assay; format: functional, cell-based
[3] = Antiproliferative activity against mouse CTLL-2 cells incubated for 72 hrs by [3H] thymidine incorporation assay; format: functional, cell-based
JAK3/JAK1 = JAK3/JAK1 (Homo sapiens, UniProt P23458+P52333); experiment: Inhibition of JAK1/JAK3 in T cells (unknown origin) assessed as reduction in IL2-mediated cell proliferation; format: cell-based
[4] = AUC (0 to 8 hrs) in mouse pharamcodynamic model at 5 mg/kg, po; format: ADME, organism-based; set-up: dose 5 mg/kg, time < 8 hr, route oral; details: in vivo
[5] = Toxicity in micronucleus (unknown origin) assessed as induction of clastogenesis by micronucleus assay
Rattus norvegicus [6] = experiment: Toxicity in rat assessed as drug tolerability at 15 mg/kg/day for 2 weeks; format: organism-based; details: in vivo, 336 h
[7] = AUC (0 to 24 hrs) in rat assessed as drug tolerability at 15 mg/kg/day for 2 weeks measured on day 14; format: ADME, organism-based; set-up: time < 24 hr, dose 15 mg/kg/day; details: in vivo
Rattus norvegicus [8] = experiment: Reduction in reticulocytes in rat at 15 mg/kg/day for 2 weeks; format: functional, organism-based
[9] = Half in human liver microsomes; format: ADME
[10] = Half in mouse liver microsomes; format: ADME
[11] = Half in rat liver microsomes; format: ADME
[12] = Half in dog liver microsomes; format: ADME, Canis lupus familiaris
Cytochrome P450 1A2 = target: T2, Cytochrome P450 1A2 (Homo sapiens, UniProt P05177); experiment: Inhibition of CYP1A2 in human liver microsomes; format: ADME
T2 sequence (P05177 whole entry): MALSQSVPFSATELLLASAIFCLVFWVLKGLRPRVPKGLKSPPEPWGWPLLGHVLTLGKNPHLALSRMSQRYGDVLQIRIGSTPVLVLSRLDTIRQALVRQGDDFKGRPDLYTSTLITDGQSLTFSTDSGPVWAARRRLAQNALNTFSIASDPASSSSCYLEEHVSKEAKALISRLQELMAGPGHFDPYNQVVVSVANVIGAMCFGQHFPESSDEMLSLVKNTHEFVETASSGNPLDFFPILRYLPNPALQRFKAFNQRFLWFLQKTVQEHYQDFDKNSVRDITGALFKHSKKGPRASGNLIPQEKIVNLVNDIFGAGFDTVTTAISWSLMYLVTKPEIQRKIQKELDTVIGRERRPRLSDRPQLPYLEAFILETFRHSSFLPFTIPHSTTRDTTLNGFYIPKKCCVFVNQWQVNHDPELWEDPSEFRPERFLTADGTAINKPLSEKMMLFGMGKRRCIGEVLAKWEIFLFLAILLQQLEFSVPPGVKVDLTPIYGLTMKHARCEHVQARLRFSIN

[13] = target: T3, Nuclear receptor subfamily 1 group I member 2 (Homo sapiens, UniProt O75469); experiment: Activation of PXR (unknown origin); format: ADME
T3 sequence (O75469 whole entry): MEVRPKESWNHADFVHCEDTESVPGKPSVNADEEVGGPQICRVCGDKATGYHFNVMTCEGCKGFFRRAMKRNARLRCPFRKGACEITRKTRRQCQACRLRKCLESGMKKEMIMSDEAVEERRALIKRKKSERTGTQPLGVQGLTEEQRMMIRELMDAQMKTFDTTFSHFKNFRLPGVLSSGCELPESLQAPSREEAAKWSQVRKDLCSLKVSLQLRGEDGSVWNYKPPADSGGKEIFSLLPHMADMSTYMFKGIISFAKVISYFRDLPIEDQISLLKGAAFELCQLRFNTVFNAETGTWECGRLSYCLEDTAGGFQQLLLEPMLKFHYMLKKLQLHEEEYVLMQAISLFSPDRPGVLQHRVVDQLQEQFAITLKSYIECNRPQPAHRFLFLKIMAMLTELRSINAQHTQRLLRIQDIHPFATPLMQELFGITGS

[14] = Toxicity against human HepG2 cells; format: cell-based
[15] = Clearance in rat at 1 mg/kg, iv and 1 mg/kg, po; format: ADME, organism-based; details: in vivo
[16] = Volume of distribution at steady state in rat at 1 mg/kg, iv and 1 mg/kg, po; format: ADME, organism-based; details: in vivo, read-out: Vdss
[17] = Oral bioavailability in rat at 1 mg/kg; format: ADME, organism-based; details: in vivo
[18] = Clearance in dog at 0.2 mg/kg, iv and 0.2 mg/kg, po; format: ADME, organism-based, Canis lupus familiaris; details: in vivo
[19] = Half life in dog at 0.2 mg/kg, iv and 0.2 mg/kg, po; format: ADME, organism-based, Canis lupus familiaris; details: in vivo
[20] = Oral bioavailability in dog at 0.2 mg/kg; format: ADME, organism-based, Canis lupus familiaris; details: in vivo
[21] = Half life in cynomolgus monkey at 1 mg/kg, iv and 1 mg/kg, po; format: ADME, organism-based, Macaca fascicularis; details: in vivo
[22] = target: T1, Tyrosine-protein kinase JAK2; experiment: Inhibition of recombinant JAK2 (unknown origin) using 5-FAM-KKKKEEIYFFFG-OH substrate and ATP incubated for 180 mins by […] method
[23] = Antiproliferative activity against human SET2 cells incubated for 72 hrs by [3H] thymidine incorporation assay; format: functional, cell-based; details: SET-2
[24] = target: Non-receptor tyrosine-protein kinase TYK2 (Homo sapiens, UniProt P29597); experiment: Inhibition of recombinant TYK2 (unknown origin) by scintillation counting method
Non-receptor tyrosine-protein kinase TYK2, sequence (P29597 whole entry): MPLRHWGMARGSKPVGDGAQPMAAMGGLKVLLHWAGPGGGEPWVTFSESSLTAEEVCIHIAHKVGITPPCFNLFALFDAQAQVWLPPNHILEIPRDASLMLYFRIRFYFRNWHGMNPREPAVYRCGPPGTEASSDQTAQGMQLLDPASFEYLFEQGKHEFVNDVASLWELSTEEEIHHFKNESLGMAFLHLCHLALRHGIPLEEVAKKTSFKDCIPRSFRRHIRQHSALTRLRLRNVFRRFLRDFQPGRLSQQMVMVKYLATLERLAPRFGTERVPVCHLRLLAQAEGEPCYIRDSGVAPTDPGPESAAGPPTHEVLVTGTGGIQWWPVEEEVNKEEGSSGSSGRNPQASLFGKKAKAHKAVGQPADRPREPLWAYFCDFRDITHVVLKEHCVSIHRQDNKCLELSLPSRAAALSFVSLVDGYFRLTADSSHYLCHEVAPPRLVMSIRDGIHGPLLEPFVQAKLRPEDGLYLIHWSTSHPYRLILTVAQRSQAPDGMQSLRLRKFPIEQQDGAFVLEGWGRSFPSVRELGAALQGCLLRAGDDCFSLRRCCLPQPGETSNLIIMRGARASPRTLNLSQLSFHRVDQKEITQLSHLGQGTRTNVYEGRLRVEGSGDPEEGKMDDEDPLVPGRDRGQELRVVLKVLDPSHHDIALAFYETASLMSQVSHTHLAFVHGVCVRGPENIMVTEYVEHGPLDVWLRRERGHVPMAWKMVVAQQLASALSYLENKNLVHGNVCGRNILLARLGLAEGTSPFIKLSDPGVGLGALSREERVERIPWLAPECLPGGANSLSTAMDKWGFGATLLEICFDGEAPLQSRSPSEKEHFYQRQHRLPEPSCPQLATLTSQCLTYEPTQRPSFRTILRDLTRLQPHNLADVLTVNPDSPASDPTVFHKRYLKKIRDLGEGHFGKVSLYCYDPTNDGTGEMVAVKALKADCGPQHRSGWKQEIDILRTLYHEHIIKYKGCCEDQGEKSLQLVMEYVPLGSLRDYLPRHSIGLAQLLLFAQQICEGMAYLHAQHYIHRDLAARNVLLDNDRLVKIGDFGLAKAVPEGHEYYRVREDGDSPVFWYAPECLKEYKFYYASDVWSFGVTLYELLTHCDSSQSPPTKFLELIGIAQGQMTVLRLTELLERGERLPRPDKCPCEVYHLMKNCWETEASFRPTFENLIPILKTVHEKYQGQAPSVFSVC

BaF3 = experiment: Antiproliferative activity against mouse BAF3 cells expressing JAK2 V617F mutant incubated for 72 hrs by [3H] thymidine incorporation assay; format: functional, cell-based

T1 sequence (O60674 whole entry): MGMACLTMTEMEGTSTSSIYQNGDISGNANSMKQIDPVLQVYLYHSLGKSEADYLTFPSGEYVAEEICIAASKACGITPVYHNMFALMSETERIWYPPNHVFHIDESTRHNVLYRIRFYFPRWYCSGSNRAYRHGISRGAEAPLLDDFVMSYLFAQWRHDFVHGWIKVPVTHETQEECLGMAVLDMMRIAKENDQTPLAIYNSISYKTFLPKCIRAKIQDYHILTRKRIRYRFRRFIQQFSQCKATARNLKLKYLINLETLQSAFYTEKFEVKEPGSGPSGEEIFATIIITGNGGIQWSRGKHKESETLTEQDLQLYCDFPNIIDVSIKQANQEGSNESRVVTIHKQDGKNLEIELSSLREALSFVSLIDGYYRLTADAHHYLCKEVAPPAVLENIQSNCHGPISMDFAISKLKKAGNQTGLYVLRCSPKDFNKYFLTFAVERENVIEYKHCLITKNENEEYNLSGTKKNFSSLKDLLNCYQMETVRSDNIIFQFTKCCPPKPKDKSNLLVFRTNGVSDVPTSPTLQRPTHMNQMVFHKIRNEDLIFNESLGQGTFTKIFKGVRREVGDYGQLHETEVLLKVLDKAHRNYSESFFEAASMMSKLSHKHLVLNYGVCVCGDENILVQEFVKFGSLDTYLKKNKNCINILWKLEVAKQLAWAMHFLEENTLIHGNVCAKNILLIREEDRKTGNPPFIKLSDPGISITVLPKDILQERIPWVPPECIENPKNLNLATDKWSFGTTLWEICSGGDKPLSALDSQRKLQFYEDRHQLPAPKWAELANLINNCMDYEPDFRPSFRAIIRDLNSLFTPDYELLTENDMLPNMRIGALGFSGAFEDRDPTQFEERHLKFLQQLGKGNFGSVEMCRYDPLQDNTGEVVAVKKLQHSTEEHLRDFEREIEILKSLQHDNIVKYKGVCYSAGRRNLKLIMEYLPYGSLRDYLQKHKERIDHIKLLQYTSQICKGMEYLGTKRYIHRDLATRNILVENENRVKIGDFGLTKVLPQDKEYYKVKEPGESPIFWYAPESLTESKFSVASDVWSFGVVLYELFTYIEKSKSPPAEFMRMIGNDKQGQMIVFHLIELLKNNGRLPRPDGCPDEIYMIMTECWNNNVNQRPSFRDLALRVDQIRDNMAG

## CCn1c(C(=O)N(C2CC2)C2CC2)cc2c3c(ncn3C)c(Nc3cc(C)n(C)n3)nc21 [BMS-911543]
[1]
  IC50: 80 nM
[2]
  IC50: 65 nM
A549
  IC50: 2400 nM
MDA-MB-231
  Activity: inactive
MIA PaCa-2
  Activity: inactive
[3]
  IC50: 2900 nM
JAK3/JAK1
  IC50: 990 nM
[4]
  AUC(0-t) at 8 h: 23 µM·h
[5]
  Activity: Non-toxic
Rattus norvegicus [6]
  Activity: Non-toxic
[7]
  AUC at 24 h: 3200 µM·h
Rattus norvegicus [8]
  Activity: Active
[9]
  half-life: 0.817 h
[10]
  half-life: 1.8 h
[11]
  half-life: 1.15 h
[12]
  half-life: 1.17 h
Cytochrome P450 1A2
  IC50: 1000 nM
[13]
  EC50: > 50000 nM
[14]
  IC50: > 50000 nM
[15]
  clearance: 0.7 mL/min/kg
[16]
  Vd: 0.3 L/kg
[17]
  bioavailability: 100%
[18]
  clearance: 6.5 mL/min/kg
[19]
  half-life: 2.2 h
[20]
  bioavailability: 82%
[21]
  half-life: 2.4 h
[22]
  IC50: 1.1 nM
[23]
  IC50: 60 nM
[24]
  IC50: 66 nM
BaF3
  IC50: 70 nM
